From PubChem BioAssay (NCI)
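Briefly, cells in 96-well plates were exposed to five compound concentrations for 48 h, and endpoints were estimated by linear interpolation. The concentration for 50% growth inhibition is given as GI50. Definition used: TGI = concentration required for complete inhibition of growth.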

What was measured:
Experiment in all cases: DTP human tumour cell line panel, 48 h
HL-60(TB) leukemia = system: HL-60(TB) leukemia
KM12 colon = system: KM12 colon
MDA-MB-231 breast = system: MDA-MB-231 breast
SF-268 CNS = system: SF-268 CNS
SK-MEL-28 melanoma = system: SK-MEL-28 melanoma
HCT-15 colon = system: HCT-15 colon
OVCAR-8 ovarian = system: OVCAR-8 ovarian
SW-620 colon = system: SW-620 colon
HOP-92 NSCLC = system: HOP-92 NSCLC
LOX IMVI melanoma = system: LOX IMVI melanoma
MDA-MB-435 = system: MDA-MB-435
UO-31 renal = system: UO-31 renal
U251 CNS = system: U251 CNS
SK-OV-3 ovarian = system: SK-OV-3 ovarian
RXF 393 renal = system: RXF 393 renal
SNB-19 CNS = system: SNB-19 CNS
NCI-H23 lung = system: NCI-H23 lung
NCI/ADR-RES ovarian = system: NCI/ADR-RES ovarian
MALME-3M melanoma = system: MALME-3M melanoma
T-47D breast = system: T-47D breast
HOP-62 NSCLC = system: HOP-62 NSCLC
HCT-116 colon = system: HCT-116 colon
SF-539 CNS = system: SF-539 CNS
MCF7 breast = system: MCF7 breast
OVCAR-4 ovarian = system: OVCAR-4 ovarian
NCI-H226 lung = system: NCI-H226 lung
IGROV1 ovarian = system: IGROV1 ovarian
CCRF-CEM leukemia = system: CCRF-CEM leukemia
DU-145 prostate = system: DU-145 prostate
TK-10 renal = system: TK-10 renal
EKVX NSCLC = system: EKVX NSCLC
SR leukemia = system: SR leukemia
M14 melanoma = system: M14 melanoma
HCC-2998 colon = system: HCC-2998 colon
UACC-62 melanoma = system: UACC-62 melanoma
COLO 205 colon = system: COLO 205 colon
SNB-75 CNS = system: SNB-75 CNS
HS 578T breast = system: HS 578T breast
ACHN renal = system: ACHN renal
SN12C renal = system: SN12C renal
SK-MEL-5 melanoma = system: SK-MEL-5 melanoma
SF-295 CNS = system: SF-295 CNS
A498 renal = system: A498 renal
UACC-257 melanoma = system: UACC-257 melanoma
NCI-H460 lung = system: NCI-H460 lung
HT29 colon = system: HT29 colon
A549 NSCLC = system: A549 NSCLC
786-0 renal = system: 786-0 renal
OVCAR-3 ovarian = system: OVCAR-3 ovarian
PC-3 prostate = system: PC-3 prostate
K-562 leukemia = system: K-562 leukemia
OVCAR-5 ovarian = system: OVCAR-5 ovarian
CAKI-1 renal = system: CAKI-1 renal
SK-MEL-2 melanoma = system: SK-MEL-2 melanoma
MOLT-4 leukemia = system: MOLT-4 leukemia
NCI-H522 lung = system: NCI-H522 lung
RPMI-8226 leukemia = system: RPMI-8226 leukemia

COc1cc(C2NCCC(c3ccccc3)(c3ccccc3)N2)cc(OC)c1OC (configuration not stated)
TGI (HL-60(TB) leukemia): 90.2 µM
TGI (KM12 colon): > 100 µM
TGI (MDA-MB-231 breast): > 100 µM
TGI (SF-268 CNS): > 100 µM
TGI (SK-MEL-28 melanoma): 35.6 µM
TGI (HCT-15 colon): > 100 µM
TGI (OVCAR-8 ovarian): > 100 µM
TGI (SW-620 colon): > 100 µM
TGI (HOP-92 NSCLC): 27.9 µM
TGI (LOX IMVI melanoma): 47.7 µM
TGI (MDA-MB-435): > 100 µM
TGI (UO-31 renal): 66.2 µM
TGI (U251 CNS): > 100 µM
TGI (SK-OV-3 ovarian): > 100 µM
TGI (RXF 393 renal): > 100 µM
TGI (SNB-19 CNS): > 100 µM
TGI (NCI-H23 lung): > 100 µM
TGI (NCI/ADR-RES ovarian): > 100 µM
TGI (MALME-3M melanoma): 34 µM
TGI (T-47D breast): > 100 µM
TGI (HOP-62 NSCLC): > 100 µM
TGI (HCT-116 colon): > 100 µM
TGI (SF-539 CNS): 29.7 µM
TGI (MCF7 breast): 85.8 µM
TGI (OVCAR-4 ovarian): > 100 µM
TGI (NCI-H226 lung): 43.8 µM
TGI (IGROV1 ovarian): > 100 µM
TGI (CCRF-CEM leukemia): > 100 µM
TGI (DU-145 prostate): > 100 µM
TGI (TK-10 renal): > 100 µM
TGI (EKVX NSCLC): > 100 µM
TGI (SR leukemia): > 100 µM
TGI (M14 melanoma): 27.2 µM
TGI (HCC-2998 colon): 42.7 µM
TGI (UACC-62 melanoma): > 100 µM
TGI (COLO 205 colon): 42.4 µM
TGI (SNB-75 CNS): > 100 µM
TGI (HS 578T breast): 79.5 µM
TGI (ACHN renal): > 100 µM
TGI (SN12C renal): > 100 µM
TGI (SK-MEL-5 melanoma): 32.1 µM
TGI (SF-295 CNS): 35.8 µM
TGI (A498 renal): 88.6 µM
TGI (UACC-257 melanoma): 33.9 µM
TGI (NCI-H460 lung): > 100 µM
TGI (HT29 colon): 79.4 µM
TGI (A549 NSCLC): > 100 µM
TGI (786-0 renal): > 100 µM

C=C1c2c(C)nn(-c3ccc(OC)cc3)c2N(C)C23C[C@@H]1C1(C)c4c(C)nn(-c5ccc(OC)cc5)c4N(C)C(C)(C[C@H]12)C3 (some centres not stated)
GI50 (HL-60(TB) leukemia): 2.54 µM
TGI (HL-60(TB) leukemia): > 100 µM
GI50 (KM12 colon): 3.75 µM
TGI (KM12 colon): > 100 µM
GI50 (MDA-MB-231 breast): 3.11 µM
TGI (MDA-MB-231 breast): 15.7 µM
GI50 (SF-268 CNS): 3.63 µM
TGI (SF-268 CNS): 70.5 µM
GI50 (SK-MEL-28 melanoma): 5.86 µM
TGI (SK-MEL-28 melanoma): > 100 µM
GI50 (HCT-15 colon): 3.11 µM
TGI (HCT-15 colon): > 100 µM
GI50 (OVCAR-3 ovarian): 3.27 µM
TGI (OVCAR-3 ovarian): > 100 µM
GI50 (OVCAR-8 ovarian): 3.4 µM
TGI (OVCAR-8 ovarian): 39.3 µM
GI50 (PC-3 prostate): 1.75 µM
TGI (PC-3 prostate): 7.77 µM
GI50 (SW-620 colon): 3.63 µM
TGI (SW-620 colon): > 100 µM
GI50 (HOP-92 NSCLC): 1.18 µM
TGI (HOP-92 NSCLC): 5.4 µM
GI50 (MDA-MB-435): 3.4 µM
TGI (MDA-MB-435): > 100 µM
GI50 (UO-31 renal): 2.61 µM
TGI (UO-31 renal): > 100 µM
GI50 (U251 CNS): 2.67 µM
GI50 (SK-OV-3 ovarian): 3.39 µM
TGI (SK-OV-3 ovarian): 16.2 µM
GI50 (RXF 393 renal): 1.9 µM
TGI (RXF 393 renal): 6.08 µM
GI50 (SNB-19 CNS): 4.34 µM
TGI (SNB-19 CNS): 55.8 µM
GI50 (NCI-H23 lung): 3.86 µM
TGI (NCI-H23 lung): 53.6 µM
GI50 (NCI/ADR-RES ovarian): 4.04 µM
TGI (NCI/ADR-RES ovarian): > 100 µM
GI50 (MALME-3M melanoma): 3.24 µM
TGI (MALME-3M melanoma): > 100 µM
GI50 (T-47D breast): 1.81 µM
TGI (T-47D breast): > 100 µM
GI50 (HOP-62 NSCLC): 4.28 µM
TGI (HOP-62 NSCLC): 18.9 µM
GI50 (HCT-116 colon): 2.82 µM
TGI (HCT-116 colon): 12.8 µM
GI50 (SF-539 CNS): 3.16 µM
TGI (SF-539 CNS): 16.8 µM
GI50 (MCF7 breast): 2.69 µM
TGI (MCF7 breast): > 100 µM
GI50 (K-562 leukemia): 3.6 µM
TGI (K-562 leukemia): > 100 µM
GI50 (OVCAR-4 ovarian): 3.56 µM
TGI (OVCAR-4 ovarian): 54.6 µM
GI50 (NCI-H226 lung): 4.44 µM
TGI (NCI-H226 lung): 63 µM
GI50 (OVCAR-5 ovarian): 11.3 µM
TGI (OVCAR-5 ovarian): > 100 µM
GI50 (IGROV1 ovarian): 7.54 µM
TGI (IGROV1 ovarian): > 100 µM
GI50 (CCRF-CEM leukemia): 3.41 µM
TGI (CCRF-CEM leukemia): > 100 µM
GI50 (DU-145 prostate): 4.38 µM
TGI (DU-145 prostate): > 100 µM
GI50 (TK-10 renal): 3.63 µM
TGI (TK-10 renal): 11.8 µM
GI50 (SR leukemia): 3.16 µM
TGI (SR leukemia): > 100 µM
GI50 (CAKI-1 renal): 2.67 µM
TGI (CAKI-1 renal): > 100 µM
GI50 (M14 melanoma): 3.88 µM
TGI (M14 melanoma): > 100 µM
GI50 (SK-MEL-2 melanoma): 3.23 µM
TGI (SK-MEL-2 melanoma): 9.94 µM
GI50 (HCC-2998 colon): 4.07 µM
TGI (HCC-2998 colon): > 100 µM
GI50 (UACC-62 melanoma): 2.86 µM
TGI (UACC-62 melanoma): > 100 µM
GI50 (COLO 205 colon): 2.2 µM
TGI (COLO 205 colon): 5.11 µM
GI50 (HS 578T breast): 6.23 µM
TGI (HS 578T breast): 77.4 µM
GI50 (ACHN renal): 3.3 µM
TGI (ACHN renal): 19 µM
GI50 (MOLT-4 leukemia): 2.6 µM
TGI (MOLT-4 leukemia): > 100 µM
GI50 (SN12C renal): 3.65 µM
TGI (SN12C renal): > 100 µM
GI50 (NCI-H522 lung): 2.77 µM
TGI (NCI-H522 lung): 11 µM
GI50 (A498 renal): 2.47 µM
TGI (A498 renal): 16.4 µM
GI50 (UACC-257 melanoma): 2.68 µM
TGI (UACC-257 melanoma): > 100 µM
GI50 (HT29 colon): 3.24 µM
TGI (HT29 colon): > 100 µM
GI50 (A549 NSCLC): 2.69 µM
TGI (A549 NSCLC): 55.7 µM
GI50 (786-0 renal): 4.23 µM
TGI (786-0 renal): 19.7 µM

[2H]C([2H])([2H])Oc1cc(F)ccc1/C=C/C(=O)/C=C(/C=C/c1ccc(F)cc1OC([2H])([2H])[2H])OB(F)F
GI50 (HL-60(TB) leukemia): 1.68 µM
TGI (HL-60(TB) leukemia): 6.67 µM
GI50 (SNB-19 CNS): 3.47 µM
TGI (SNB-19 CNS): > 100 µM
GI50 (HOP-62 NSCLC): 3.11 µM
TGI (HOP-62 NSCLC): > 100 µM
GI50 (SR leukemia): 2.67 µM
TGI (SR leukemia): > 100 µM
GI50 (SK-MEL-2 melanoma): 2.99 µM
TGI (SK-MEL-2 melanoma): > 100 µM
GI50 (SNB-75 CNS): 2.39 µM
TGI (SNB-75 CNS): > 100 µM
GI50 (HS 578T breast): 5.67 µM
TGI (HS 578T breast): > 100 µM

C[C@H]1[C@H](C)CC[C@]2(C(=O)OCCCC[P+](c3ccccc3)(c3ccccc3)c3ccccc3)CC[C@]3(C)C(=CC[C@@H]4[C@@]5(C)CC[C@H](OC(=O)C(Cl)Cl)C(C)(C)[C@@H]5CC[C@]43C)[C@H]12
GI50 (SW-620 colon): 0.349 µM
TGI (SW-620 colon): 1.29 µM
GI50 (NCI-H226 lung): 0.354 µM
TGI (NCI-H226 lung): 1.82 µM
GI50 (NCI-H460 lung): 0.283 µM
TGI (NCI-H460 lung): 0.975 µM

C#C[C@]1(O)CC[C@H]2[C@@H]3CC=C4c5nc(Nc6ncccn6)sc5CC[C@]4(C)[C@H]3CC[C@@]21C
GI50 (RPMI-8226 leukemia): 0.421 µM
TGI (RPMI-8226 leukemia): 2.11 µM
GI50 (RXF 393 renal): 0.451 µM
TGI (RXF 393 renal): 1.69 µM
GI50 (SNB-19 CNS): 2.77 µM
TGI (SNB-19 CNS): > 100 µM
GI50 (EKVX NSCLC): 2.99 µM
TGI (EKVX NSCLC): > 100 µM
GI50 (HS 578T breast): 1.25 µM
TGI (HS 578T breast): 4.14 µM
